Measured values from article PMC10045663, “Synthesis, In Vitro Biological Evaluation of Antiproliferative and Neuroprotective Effects and In Silico Studies of Novel 16E-Arylidene-5α,6α-epoxyepiandrosterone Derivatives” (Biomedicines, 2023).
Blank lines part the entries; values can stand above or below the compound they belong to.

Key:
[1] = test system: T47-D cells (breast cancer); parameters: method as in PMID 23635011; settings: MTT assay, read-out: IC50 against T47-D cells; cited from earlier work
[2] = test system: KB (nasopharyngeal epidermoid carcinoma); parameters: method as in PMID 23635011; settings: read-out: IC50 against KB cells; cited from earlier work
[3] = test system: NHDF cells (normal human dermal fibroblasts); assay: MTT cell proliferation assay, NHDF cells; assay type: cell-based; settings: Homo sapiens, NHDF, 72 h, non-tumoral cells, read-out: Estimated IC50, NHDF
Experimental: (§1) LNCaP, PC-3, MCF-7, PNT1A, N27, and NHDF cells were obtained from the American Type Culture Collection (ATCC; Manassas, VA, USA) and were cultured in 75 cm^2 culture flasks at 37 °C in a humidified air incubator with 5% CO2. LNCaP, PC-3, PNT1A, and N27 cells, respectively, were cultured in RPMI 1640 medium (Sigma-Aldrich, Inc. St. Louis, MO, USA) with 10% fetal bovine serum (FBS; Sigma-Aldrich, Inc. St. Louis, MO, USA) and 1% of the antibiotic mixture of 10,000 U/mL penicillin G and […] streptomycin (Sp, Sigma-Aldrich, Inc. St. Louis, MO, USA). MCF-7 cells were cultured in DMEM medium (Sigma-Aldrich, Inc. St. Louis, MO, USA) supplemented with 10% fetal bovine serum (FBS; Sigma-Aldrich, Inc. St. Louis, MO, USA) and 1% antibiotic/antimycotic (10,000 U/mL penicillin G, […] streptomycin, and 25 µg/mL amphotericin B: Ab, Sigma-Aldrich, Inc. St. Louis, MO, USA). Finally, NHDF cells were cultured in RPMI 1640 medium supplemented with 10% FBS, 2 mM L-glutamine, 10 mM HEPES, 1 mM sodium pyruvate, and 1% of the antibiotic/antimycotic Ab, and these cells were used in passages 10th to 14th. For all cell types, the medium was renewed every 2 days until cells nearly reached the confluence state. When cells reach approximately 90–95% confluence, they are gently detached by trypsinization (trypsin-EDTA solution: 0.125 g/L of trypsin and 0.02 g/L of EDTA). Before each experiment, viable cells were counted in a Neubauer chamber by a trypan-blue exclusion assay and adequately diluted in the appropriate complete cell culture medium.
(§2) All tested compounds were dissolved in dimethyl sulfoxide (DMSO; Sigma-Aldrich, Inc. St. Louis, MO, USA) at a concentration of 10 mM and stored at 4 °C. From the mother-solutions, the diluted solutions of the compounds, in different concentrations, were prepared in the respective complete culture medium before each experiment.
(§3) After reaching a confluence state, cells were trypsinized and counted by the trypan-blue exclusion assay and then seeded with an initial density of 2 × 10^4 cells/mL in 96-well culture plates (Nunc, Apogent, Denmark) and left to adhere and grow for 48 h. Subsequently, the medium was removed, and the cells were treated with compound solutions (10 and 50 µM for preliminary studies and 0.01, 0.1, 1, 10, 50, and 100 µM for concentration-response studies) in complete culture medium for 72 h. 5-Fluorouracil (5-FU) was used as a positive control, and untreated cells were used as the negative control. Compounds leading to cell proliferation relative to control clearly below 50%, at 10 µM, or clearly below 25%, at 50 µM, in the screening studies were selected to concentration-response studies in tumoral cell lines. Each experiment was performed in quadruplicate and independently at least two times. The in vitro antiproliferative effects were evaluated by the MTT assay (Sigma-Aldrich, Inc. St. Louis, MO, USA). After the incubation period, the medium was removed, and 100 µL of phosphate buffer saline (PBS, NaCl 137 mM; KCl 2.7 mM; Na2HPO4 10 mM; and KH2PO4 1.8 mM in deionized water with a pH adjusted to 7.4) were used to wash the cells. Then, 100 µL of the MTT solution (5 mg/mL) was prepared in the appropriate serum-free medium and added to each well, followed by incubation for 4 h at 37 °C. Hereafter, the MTT containing medium was removed, and the formazan crystals were dissolved in DMSO. Then, the absorbance was measured at 570 nm using a xMarkTM microplate spectrophotometer from BIO-RAD Laboratories. Cell viability values were expressed as percentages relative to the negative control.

MCF-7 cells [4] = assay: Nearest neighbor distance analysis with ImageJ; assay type: cell-based; settings: MCF-7, 1 and 10 µM, 48 h
Source text: The nuclear measurements were achieved by converting 16-bit photomicrographs of Hoechst 33342-stained nuclei in different studied conditions into 8-bit images. Then, these imagens were autothresholded to binary photos using the default “Make binary” function of ImageJ (v. 1.49) software (NIH Image, Bethesda, MD, USA). Cell nuclei that are touching were separated and fragments were discarded based on area through “Analyze Particle” function. This function also provides several other information, such as nuclear area (NA), circumference, and form factor [26]. Furthermore, the “Nearest Neighbor Distance” (NND) was determined. This function allows measuring the distance between each cell nucleus and the nearest ones, providing information about cell distribution.

[5] = test system: MCF-7 cells (estrogen-responsive breast cancer cells); assay: MTT cell proliferation assay, MCF-7 cells; assay type: cell-based; settings: Homo sapiens, MCF7; MTT, 72 h, tumoral cells; read-out: Estimated IC50, MCF-7
Experimental: as §1, §2, §3

[6] = test system: LNCaP cells (androgen-dependent prostatic cancer); assay: MTT cell proliferation assay, LNCaP cells; assay type: cell-based; settings: Homo sapiens, LNCaP; MTT, 72 h, tumoral cells; read-out: Estimated IC50, LNCaP
Experimental: as §1, §2, §3

[7] = test system: PC-3 cells (androgen-independent prostatic cancer); assay: MTT cell proliferation assay, PC-3 cells; assay type: cell-based; settings: Homo sapiens, PC-3; MTT, 72 h, tumoral cells; read-out: Estimated IC50, PC-3
Experimental: as §1, §2, §3

MCF-7 cells [8] = assay: Immunocytochemistry assay, Ki67 staining; assay type: cell-based; settings: 48 h
Experimental: MCF-7 cells were trypsinized and counted by the trypan-blue exclusion assay, and then cells were seeded with an initial density of 3 × 10^4 cells/mL in 24-well culture plates (Nunc, Apogent, Denmark) containing circular coverslips of 10 mm diameter. Following seeding (48 h), cells were treated with 1 and 10 µM concentrations of 5-FU, as positive controls, and steroid 19 for 48 h. Untreated cells were used as a negative control. After this period, photograph shots were acquired at an optical microscope coupled with a digital camera (Supplementary Material, S2). Subsequently, the medium was removed, and cells were fixed with 10% formalin (15 min, room temperature). After fixation, cells were washed three times with PBS, permeabilized, and blocked for non-specific binding sites for 1 h with 0.5% Triton X-100 and 6% BSA at room temperature. Cells were incubated at 4 °C with 30 μL/coverslip of primary antibody, rabbit polyclonal anti-Ki67 (1:50, Abcam Plc.), prepared in 0.3% BSA and 0.1% Triton X-100, overnight. Then, cells were washed three times with PBS and incubated for 1 h, at room temperature, with 30 μL/coverslip of a solution containing the secondary antibody, Alexa Fluor 488 donkey anti-rabbit (1:200, Life Technologies), and the nuclear marker Hoechst-33342 (1:500, Life Technologies) prepared in PBS. Lastly, the coverslips were washed three times with PBS, mounted on a drop of the fluoroshield mounting medium (Abcam, Plc.) on a microscope slide, and left to dry for 24 h. Photomicrographs were taken using an Axio Imager A1 microscope (Carl Zeiss, Göttingen, Germany) with the 40 × objective.

[9] = test system: PNT1A (normal prostate cells); assay: MTT cell proliferation assay, PNT1A cells; assay type: cell-based; settings: Homo sapiens, PNT1A, 72 h, non-tumoral cells, read-out: Estimated IC50, PNT1A
Experimental: as §1, §2, §3

MCF-7 cells [10] = assay: PI incorporation (propidium iodide staining); assay type: cell-based; settings: 48 h
Experimental: After 48 h of being seeded at the same conditions explained in the previous (Section 2.2.4), MCF-7 cells were treated with the steroidal derivatives 19 and 5-FU at 1 and 10 µM and maintained in culture for 48 h. Untreated cells were also used as a negative control. Subsequently, cells were incubated with 20 µL/per well of a propidium iodide solution (PI; 1 mg/mL in PBS; Sigma-Aldrich Co. LLC) for 25 min at 37 °C. Then, the medium was removed, and the cells were fixed with 10% formalin for 15 min at room temperature. Cells were washed three times with PBS and incubated with 30 µL/per coverslip of Hoechst-33342 (1:500) for 10 min. After incubation, cells were washed three times with PBS. Coverslips were mounted on a drop of the fluoroshield mounting medium on a microscope slide, left to dry for 24 h, and then visualized in a Zeiss Axio Imager A1 microscope with the 40× objective.

[11] = test system: N27 (rat dopaminergic neuronal cells); assay: MTT cell proliferation assay, N27 cells; assay type: cell-based; settings: Rattus norvegicus, N27, 72 h, non-tumoral cells, read-out: Estimated IC50, N27
Experimental: as §1, §2, §3

5AR type 2 = test system: 5AR type 2; parameters: method as in PMID 26377677; settings: read-out: IC50 against 5AR type 2; cited from earlier work

SMILES: C[C@]12CC[C@H](O)CC1=CCC1C2CC[C@]2(C)C(=O)/C(=C/c3cccc(Cl)c3)CC12 (some centres unmarked) [reference compound]
IC50 [1]: 1.7 µM
IC50 [2]: 0.6 µM

IC50 [5]: 6.3 µM
IC50 [6]: 9.43 µM
IC50 [7]: 21.2 µM
SMILES: O=c1[nH]cc(F)c(=O)[nH]1 [Compound 5-FU, 5-Fluorouracil, reference compound]
IC50 [3]: 6.34 µM
cell distribution (nearest neighbor distance, NND) (MCF-7 cells [4]): more random distribution with nuclei more spaced
Ki67-positive cells relative to control (MCF-7 cells [8]; MCF-7, 1 µM): none of the compounds significantly affected
Ki67-positive cells relative to control (MCF-7 cells [8]; MCF-7, 10 µM): statistically significant decrease
IC50 [9]: 6.48 µM
PI-positive cells relative to the negative control (MCF-7 cells [10]; MCF-7, 1 µM): no significant effect
PI-positive cells relative to the negative control (MCF-7 cells [10]; MCF-7, 10 µM): significantly increase
IC50 [11]: 3.19 µM

SMILES: C[C@]12CCC3C(C[C@@H]4O[C@@]45C[C@@H](O)CC[C@]35C)C1CC=C2C(=O)COC(=O)c1ccc(F)cc1 (stereo partly drawn) [21(p-fluoro)benzoyloxy-5α,6α-epoxy-3β-hydroxypregna-16-en-20-one]
IC50 (5AR type 2): 0.179 µM
